Tested on: MV-4-11 cells
Experiment: Gene expression microarray analysis (Affymetrix PrimeView) and GSEA
Assay type: cell-based, human
Parameters: RFU PODN (11730768_x_at) / Fold change /veh PODN (11730768_x_at) / RFU LINC00158 (11744669_a_at) / Fold change /veh LINC00158 (11744669_a_at) / RFU DUSP10 (11751237_a_at) / Fold change /veh DUSP10 (11751237_a_at) / RFU ID3 (11757404_x_at) / Fold change /veh ID3 (11757404_x_at) / RFU PLEKHG5 (11737974_s_at) / Fold change /veh PLEKHG5 (11737974_s_at) / RFU LRRC4B (11730491_at) / Fold change /veh LRRC4B (11730491_at) / RFU GIMAP4 (11747438_a_at) / Fold change /veh GIMAP4 (11747438_a_at) / RFU KRT8 (11758183_x_at) / Fold change /veh KRT8 (11758183_x_at) / RFU CNN1 (11734310_a_at) / Fold change /veh CNN1 (11734310_a_at) / RFU VPS37D (11726825_at) / Fold change /veh VPS37D (11726825_at) / RFU C10orf10 (11716522_x_at) / Fold change /veh C10orf10 (11716522_x_at) / RFU KIR2DL2 /// KIR2DL4 /// KIR2DL5A /// KIR2DL5B /// KIR2DS1 /// KIR2DS2 /// KIR2DS3 /// KIR2DS4 /// KIR3DL3 /// KIR3DL3 /// KIR3DS1 (11738374_at) / Fold change /veh KIR2DL2 /// KIR2DL4 /// KIR2DL5A /// KIR2DL5B /// KIR2DS1 /// KIR2DS2 /// KIR2DS3 /// KIR2DS4 /// KIR3DL3 /// KIR3DL3 /// KIR3DS1 (11738374_at) / RFU C1QL1 (11718748_at) / Fold change /veh C1QL1 (11718748_at) / RFU TMPRSS4 (11747572_a_at) / Fold change /veh TMPRSS4 (11747572_a_at) / RFU HAMP (11756126_x_at) / Fold change /veh HAMP (11756126_x_at) / RFU RNFT2 (11725882_a_at) / Fold change /veh RNFT2 (11725882_a_at) / RFU NR4A2 (11747474_a_at) / Fold change /veh NR4A2 (11747474_a_at) / RFU ABCC12 (11746883_a_at) / Fold change /veh ABCC12 (11746883_a_at) / RFU TMEM136 (11760407_x_at) / Fold change /veh TMEM136 (11760407_x_at) / RFU CLDN22 /// WWC2 (11732394_at) / Fold change /veh CLDN22 /// WWC2 (11732394_at) / RFU HLA-DPB1 (11760878_x_at) / Fold change /veh HLA-DPB1 (11760878_x_at) / RFU SPINT1 (11716480_a_at) / Fold change /veh SPINT1 (11716480_a_at) / RFU GAP43 (11754022_s_at) / Fold change /veh GAP43 (11754022_s_at) / RFU A4GNT (11735810_at) / Fold change /veh A4GNT (11735810_at) / RFU PRB3 (11715151_x_at) / Fold change /veh PRB3 (11715151_x_at) / RFU TUBB4B (11761932_at) / Fold change /veh TUBB4B (11761932_at) / RFU CAPN14 (11732068_a_at) / Fold change /veh CAPN14 (11732068_a_at) / RFU TMCC2 (11721928_a_at) / Fold change /veh TMCC2 (11721928_a_at) / RFU IRGQ (11745062_a_at) / Fold change /veh IRGQ (11745062_a_at) / RFU FAM174B (11720279_a_at) / Fold change /veh FAM174B (11720279_a_at) / RFU TMPRSS4 (11748680_a_at) / Fold change /veh TMPRSS4 (11748680_a_at) / RFU FAM212B (11763350_a_at) / Fold change /veh FAM212B (11763350_a_at) / RFU PLEKHG5 (11743358_a_at) / Fold change /veh PLEKHG5 (11743358_a_at) / RFU ZSCAN30 (11745921_a_at) / Fold change /veh ZSCAN30 (11745921_a_at) / RFU CMKLR1 (11741424_a_at) / Fold change /veh CMKLR1 (11741424_a_at) / RFU LOC101060620 /// MAPK8IP1 (11723275_at) / Fold change /veh LOC101060620 /// MAPK8IP1 (11723275_at) / RFU SPTSSB (11747773_x_at) / Fold change /veh SPTSSB (11747773_x_at) / RFU PRSS12 (11739890_at) / Fold change /veh PRSS12 (11739890_at) / RFU BIN1 (11741810_x_at) / Fold change /veh BIN1 (11741810_x_at) / RFU WNT11 (11732464_a_at) / Fold change /veh WNT11 (11732464_a_at) / RFU C10orf10 (11716521_a_at) / Fold change /veh C10orf10 (11716521_a_at) / RFU C5orf56 (11738089_at) / Fold change /veh C5orf56 (11738089_at) / RFU CYB561 (11721691_x_at) / Fold change /veh CYB561 (11721691_x_at) / RFU ANKRD19P (11752326_a_at) / Fold change /veh ANKRD19P (11752326_a_at) / RFU OR2T12 /// OR2T33 /// OR2T8 (11738714_s_at) / Fold change /veh OR2T12 /// OR2T33 /// OR2T8 (11738714_s_at) / RFU VCAN (11748164_a_at) / Fold change /veh VCAN (11748164_a_at) / RFU JSRP1 (11732532_at) / Fold change /veh JSRP1 (11732532_at) / RFU KRTAP10-11 (11738290_x_at) / Fold change /veh KRTAP10-11 (11738290_x_at) / RFU MYO3A (11730013_a_at) / Fold change /veh MYO3A (11730013_a_at) / RFU EBF3 (11725865_a_at) / Fold change /veh EBF3 (11725865_a_at) / RFU CAMK2N1 (11719241_x_at) / Fold change /veh CAMK2N1 (11719241_x_at) / RFU C5orf56 (11738088_a_at) / Fold change /veh C5orf56 (11738088_a_at) / RFU OLFML3 (11715873_a_at) / Fold change /veh OLFML3 (11715873_a_at) / RFU LOC100653217 /// NTM (11731650_a_at) / Fold change /veh LOC100653217 /// NTM (11731650_a_at) / RFU MAPK11 (11762145_a_at) / Fold change /veh MAPK11 (11762145_a_at) / RFU FIZ1 (11724087_x_at) / Fold change /veh FIZ1 (11724087_x_at) / RFU OASL (11726364_x_at) / Fold change /veh OASL (11726364_x_at) / RFU SOX15 (11748057_x_at) / Fold change /veh SOX15 (11748057_x_at) / RFU CD79A (11719716_a_at) / Fold change /veh CD79A (11719716_a_at) / RFU HIST1H1D (11736915_at) / Fold change /veh HIST1H1D (11736915_at) / RFU CASKIN2 (11723855_a_at) / Fold change /veh CASKIN2 (11723855_a_at) / RFU LOC730098 (11760151_x_at) / Fold change /veh LOC730098 (11760151_x_at) / RFU OR4N2 (11742367_at) / Fold change /veh OR4N2 (11742367_at) / RFU PRRT2 (11749266_a_at) / Fold change /veh PRRT2 (11749266_a_at) / RFU SNX32 (11753110_a_at) / Fold change /veh SNX32 (11753110_a_at) / RFU CDHR5 (11726645_a_at) / Fold change /veh CDHR5 (11726645_a_at) / RFU RCAN1 (11760418_a_at) / Fold change /veh RCAN1 (11760418_a_at) / RFU FAM167A (11723789_a_at) / Fold change /veh FAM167A (11723789_a_at) / RFU FAM26E (11764081_at) / Fold change /veh FAM26E (11764081_at) / RFU ISYNA1 (11749810_s_at) / Fold change /veh ISYNA1 (11749810_s_at) / RFU ACY1 (11761880_at) / Fold change /veh ACY1 (11761880_at) / RFU 11764098_at / Fold change /veh 11764098_at / RFU SAMD14 (11745864_x_at) / Fold change /veh SAMD14 (11745864_x_at) / RFU NPB (11741838_a_at) / Fold change /veh NPB (11741838_a_at) / RFU TMPRSS6 (11731388_a_at) / Fold change /veh TMPRSS6 (11731388_a_at) / RFU KRTAP10-2 (11738614_at) / Fold change /veh KRTAP10-2 (11738614_at) / RFU ARHGAP8 /// PRR5-ARHGAP8 (11727945_x_at) / Fold change /veh ARHGAP8 /// PRR5-ARHGAP8 (11727945_x_at) / RFU KRTAP5-7 /// NADSYN1 (11734609_at) / Fold change /veh KRTAP5-7 /// NADSYN1 (11734609_at) / RFU RASL12 (11751679_a_at) / Fold change /veh RASL12 (11751679_a_at) / RFU CDKN2B (11736163_a_at) / Fold change /veh CDKN2B (11736163_a_at) / RFU PRF1 (11729649_at) / Fold change /veh PRF1 (11729649_at) / RFU, ZNF638 /// ZNF638-IT1 / Fold change vs veh, ZNF638 /// ZNF638-IT1 / RFU, PANK3 / Fold change vs veh, PANK3 / RFU, SH3YL1 / Fold change vs veh, SH3YL1 / RFU, ZEB2 / Fold change vs veh, ZEB2 / RFU, NRIP1 / Fold change vs veh, NRIP1 / RFU, PTTG1IP / Fold change vs veh, PTTG1IP / RFU, CAPN2 / Fold change vs veh, CAPN2 / RFU, MED14 / Fold change vs veh, MED14 / RFU, SNORA58 / Fold change vs veh, SNORA58 / RFU, C1orf63 / Fold change vs veh, C1orf63 / RFU, LRRFIP1 / Fold change vs veh, LRRFIP1 / RFU, NDUFAF7 / Fold change vs veh, NDUFAF7 / RFU, SLC12A2 / Fold change vs veh, SLC12A2 / RFU, IBTK / Fold change vs veh, IBTK / RFU, ESF1 / Fold change vs veh, ESF1 / Fold change vs veh, TMEM50B / RFU, TAOK1 / Fold change vs veh, TAOK1 / RFU, ACBD3 / Fold change vs veh, ACBD3 / RFU, TMA16 / Fold change vs veh, TMA16 / RFU, RWDD3 / Fold change vs veh, RWDD3 / RFU, BCAT1 / Fold change vs veh, BCAT1 / RFU, EDEM3 / Fold change vs veh, EDEM3 / RFU, TMEM33 / Fold change vs veh, TMEM33 / RFU, WDR75 / Fold change vs veh, WDR75 / RFU, AHCTF1 / Fold change vs veh, AHCTF1 / RFU, TFRC / Fold change vs veh, TFRC / RFU, ZDHHC17 / Fold change vs veh, ZDHHC17 / RFU, NOM1 / Fold change vs veh, NOM1 / RFU, ARL8B / Fold change vs veh, ARL8B / RFU, ZBTB11 / Fold change vs veh, ZBTB11 / RFU, TAMM41 / Fold change vs veh, TAMM41 / RFU, KIAA1704 /// LOC100996395 / Fold change vs veh, KIAA1704 /// LOC100996395 / RFU, ING1 / Fold change vs veh, ING1 / RFU, TRMT61B / Fold change vs veh, TRMT61B / RFU, FUBP3 / Fold change vs veh, FUBP3 / RFU, TP53 / Fold change vs veh, TP53 / RFU, TNKS2 / Fold change vs veh, TNKS2 / RFU, ZFP14 / Fold change vs veh, ZFP14 / RFU, ACTR2 / Fold change vs veh, ACTR2 / RFU, PPP3R1 / Fold change vs veh, PPP3R1 / RFU, PIK3R1 / Fold change vs veh, PIK3R1 / RFU, HNRNPA1 / Fold change vs veh, HNRNPA1 / RFU, RNF170 / Fold change vs veh, RNF170 / RFU, ZNF28 / Fold change vs veh, ZNF28 / RFU, RNGTT / Fold change vs veh, RNGTT / RFU, OGT / Fold change vs veh, OGT / RFU, BRD1 / Fold change vs veh, BRD1 / RFU, MARS / Fold change vs veh, MARS / RFU, ZNF655 / Fold change vs veh, ZNF655 / RFU, FAHD1 / Fold change vs veh, FAHD1 / RFU, BDP1 / Fold change vs veh, BDP1 / RFU, LRRCC1 / Fold change vs veh, LRRCC1 / RFU, ARID1A / Fold change vs veh, ARID1A / RFU, ZNF146 / Fold change vs veh, ZNF146 / RFU, ZNF330 / Fold change vs veh, ZNF330 / RFU, GPN3 / Fold change vs veh, GPN3 / RFU, C9orf123 / Fold change vs veh, C9orf123 / RFU, N4BP2L2 / Fold change vs veh, N4BP2L2 / RFU, ARFIP1 / Fold change vs veh, ARFIP1 / RFU, FAM179B / Fold change vs veh, FAM179B / RFU, BCL10 / Fold change vs veh, BCL10 / RFU, UHRF1BP1L / Fold change vs veh, UHRF1BP1L / RFU, BET1 / Fold change vs veh, BET1 / RFU, CNOT2 / Fold change vs veh, CNOT2 / RFU, ZNF268 / Fold change vs veh, ZNF268 / Fold change vs veh, ZNF507 / RFU, DGCR2 / Fold change vs veh, DGCR2 / RFU, WDSUB1 / Fold change vs veh, WDSUB1 / Fold change vs veh, HSP90B1 /// MIR3652 / RFU, ADSS / Fold change vs veh, ADSS / RFU, GK / Fold change vs veh, GK / RFU, ZNF148 / Fold change vs veh, ZNF148 / RFU, TAF9 / Fold change vs veh, TAF9 / RFU, SLC1A5 / Fold change vs veh, SLC1A5 / RFU, SLMO2 / Fold change vs veh, SLMO2 / RFU, ABCC4 / Fold change vs veh, ABCC4 / RFU, LOC101060439 /// RAP1B / Fold change vs veh, LOC101060439 /// RAP1B / RFU, RFX7 / Fold change vs veh, RFX7 / RFU, GTPBP10 / Fold change vs veh, GTPBP10 / RFU, CNEP1R1 / Fold change vs veh, CNEP1R1 / RFU, BIVM-ERCC5 /// ERCC5 / Fold change vs veh, BIVM-ERCC5 /// ERCC5 / RFU, ILF3 / Fold change vs veh, ILF3 / RFU 11762660_at / Fold change /veh 11762660_at / RFU VCAN (11757783_s_at) / Fold change /veh VCAN (11757783_s_at) / RFU DDX43 (11728927_at) / Fold change /veh DDX43 (11728927_at) / RFU KRT8 (11758188_x_at) / Fold change /veh KRT8 (11758188_x_at) / RFU NKD1 (11759106_at) / Fold change /veh NKD1 (11759106_at) / RFU SRD5A1 (11742802_a_at) / Fold change /veh SRD5A1 (11742802_a_at) / RFU TPSAB1 /// TPSB2 (11721975_s_at) / Fold change /veh TPSAB1 /// TPSB2 (11721975_s_at) / RFU GSTM3 (11746129_a_at) / Fold change /veh GSTM3 (11746129_a_at) / RFU IL23R (11737362_x_at) / Fold change /veh IL23R (11737362_x_at) / RFU TMEM51 (11727254_a_at) / Fold change /veh TMEM51 (11727254_a_at) / RFU PIWIL2 (11732686_x_at) / Fold change /veh PIWIL2 (11732686_x_at) / RFU ORM1 (11744905_x_at) / Fold change /veh ORM1 (11744905_x_at) / RFU CCDC152 (11743942_at) / Fold change /veh CCDC152 (11743942_at) / RFU ECM1 (11717891_a_at) / Fold change /veh ECM1 (11717891_a_at) / RFU IL23R (11748794_a_at) / Fold change /veh IL23R (11748794_a_at) / RFU TNFAIP8L3 (11732012_x_at) / Fold change /veh TNFAIP8L3 (11732012_x_at) / RFU MBOAT4 (11741988_at) / Fold change /veh MBOAT4 (11741988_at) / RFU 11764193_at / Fold change /veh 11764193_at / RFU TMEM53 (11763286_at) / Fold change /veh TMEM53 (11763286_at) / RFU MAGEB2 (11727129_at) / Fold change /veh MAGEB2 (11727129_at) / RFU TMEM200A (11744735_a_at) / Fold change /veh TMEM200A (11744735_a_at) / RFU CCDC152 (11751479_a_at) / Fold change /veh CCDC152 (11751479_a_at) / RFU FAM211A (11726209_a_at) / Fold change /veh FAM211A (11726209_a_at) / RFU RGS16 (11746705_a_at) / Fold change /veh RGS16 (11746705_a_at) / RFU VCAN (11755009_s_at) / Fold change /veh VCAN (11755009_s_at) / RFU RHOB (11743442_s_at) / Fold change /veh RHOB (11743442_s_at) / RFU RGS16 (11720943_a_at) / Fold change /veh RGS16 (11720943_a_at) / RFU RGS16 (11720944_at) / Fold change /veh RGS16 (11720944_at) / RFU, VPS4B / Fold change vs veh, VPS4B / RFU, CREB1 / Fold change vs veh, CREB1 / RFU, DNAJC13 / Fold change vs veh, DNAJC13 / RFU, GNAQ / Fold change vs veh, GNAQ / RFU, CDK5R1 / Fold change vs veh, CDK5R1 / RFU, ZRANB3 / Fold change vs veh, ZRANB3 / RFU, CUL4A / Fold change vs veh, CUL4A / RFU, CCNY / Fold change vs veh, CCNY / RFU, UFL1 / Fold change vs veh, UFL1 / RFU, COG3 / Fold change vs veh, COG3 / RFU, DIAPH2 / Fold change vs veh, DIAPH2 / RFU, SKA2 / Fold change vs veh, SKA2 / RFU, AFF3 / Fold change vs veh, AFF3 / RFU, LMF1 / Fold change vs veh, LMF1 / RFU, IPO11 / Fold change vs veh, IPO11 / RFU, DFFB / Fold change vs veh, DFFB / RFU, FOXP1 / Fold change vs veh, FOXP1 / RFU, CARD8 / Fold change vs veh, CARD8 / RFU, STRN3 / Fold change vs veh, STRN3 / RFU, ADK / Fold change vs veh, ADK / RFU, RASSF2 / Fold change vs veh, RASSF2 / RFU, WIPF1 / Fold change vs veh, WIPF1 / RFU, LARP1B / Fold change vs veh, LARP1B / RFU, RASA1 / Fold change vs veh, RASA1 / RFU, RB1 / Fold change vs veh, RB1 / RFU, PPFIA1 / Fold change vs veh, PPFIA1 / RFU, MAT2A / Fold change vs veh, MAT2A / RFU, CCT5 / Fold change vs veh, CCT5 / RFU, WDR92 / Fold change vs veh, WDR92 / RFU, CUX1 / Fold change vs veh, CUX1 / RFU, TTC7A / Fold change vs veh, TTC7A / RFU, TMEM135 / Fold change vs veh, TMEM135 / RFU, DEPTOR / Fold change vs veh, DEPTOR / RFU, CPM / Fold change vs veh, CPM / RFU, DNAJB6 / Fold change vs veh, DNAJB6 / RFU, CACNA2D3 / Fold change vs veh, CACNA2D3 / RFU, DTX4 / Fold change vs veh, DTX4 / RFU, TFCP2 / Fold change vs veh, TFCP2 / RFU, GMCL1 /// GMCL1P1 / Fold change vs veh, GMCL1 /// GMCL1P1 / RFU, AEBP2 / Fold change vs veh, AEBP2 / RFU, SNHG1 /// SNORD22 /// SNORD25 /// SNORD26 /// SNORD27 /// SNORD28 /// SNORD29 /// SNORD31 / Fold change vs veh, SNHG1 /// SNORD22 /// SNORD25 /// SNORD26 /// SNORD27 /// SNORD28 /// SNORD29 /// SNORD31 / Fold change (Aza/veh), C12orf56 (ProbeSet 11735607_a_at) / Fold change (ACY-1035/veh), C12orf56 (ProbeSet 11735607_a_at) / Fold change (Aza/veh), FGFR1OP (ProbeSet 11751329_s_at) / Fold change (ACY-1035/veh), FGFR1OP (ProbeSet 11751329_s_at) / Fold change (Aza/veh), VPS36 (ProbeSet 11739960_a_at) / Fold change (ACY-1035/veh), VPS36 (ProbeSet 11739960_a_at) / RFU SYPL1 (11715823_x_at) / Fold change /veh SYPL1 (11715823_x_at) / RFU IGFBP7 (11715501_s_at) / Fold change /veh IGFBP7 (11715501_s_at) / RFU REEP3 (11722064_at) / Fold change /veh REEP3 (11722064_at) / RFU IGLL1 (11728026_x_at) / Fold change /veh IGLL1 (11728026_x_at): dose or concentration left out as unconfirmed
Settings: ProbeSet 11753055_s_at; LIST B

Nc1ccc(-c2cccs2)cc1NC(=O)c1ccc2c(c1)cc(C1CC1)n2CCN1CCOCC1 [ACY-1035]
RFU, LOC101060439 /// RAP1B: 639.03 RFU

From publication PMC5218480 (PLoS ONE, 2017)
